Converted amounts (≈) assume the structure as drawn.
Assays:
[1] = SUPPLEMENTARY: Lyophilisation Solubility Assay (LYSA); type: physicochemical; details: read-out: Kinetic_solubility
[2] = target: T1, Carnitine O-palmitoyltransferase 1, liver isoform (Rattus norvegicus, UniProt P32198); assay: (§1) SUPPLEMENTARY: Inhibition of Carnitine palmitoyltransferase 1, liver isoform
T1 sequence (P32198 whole entry): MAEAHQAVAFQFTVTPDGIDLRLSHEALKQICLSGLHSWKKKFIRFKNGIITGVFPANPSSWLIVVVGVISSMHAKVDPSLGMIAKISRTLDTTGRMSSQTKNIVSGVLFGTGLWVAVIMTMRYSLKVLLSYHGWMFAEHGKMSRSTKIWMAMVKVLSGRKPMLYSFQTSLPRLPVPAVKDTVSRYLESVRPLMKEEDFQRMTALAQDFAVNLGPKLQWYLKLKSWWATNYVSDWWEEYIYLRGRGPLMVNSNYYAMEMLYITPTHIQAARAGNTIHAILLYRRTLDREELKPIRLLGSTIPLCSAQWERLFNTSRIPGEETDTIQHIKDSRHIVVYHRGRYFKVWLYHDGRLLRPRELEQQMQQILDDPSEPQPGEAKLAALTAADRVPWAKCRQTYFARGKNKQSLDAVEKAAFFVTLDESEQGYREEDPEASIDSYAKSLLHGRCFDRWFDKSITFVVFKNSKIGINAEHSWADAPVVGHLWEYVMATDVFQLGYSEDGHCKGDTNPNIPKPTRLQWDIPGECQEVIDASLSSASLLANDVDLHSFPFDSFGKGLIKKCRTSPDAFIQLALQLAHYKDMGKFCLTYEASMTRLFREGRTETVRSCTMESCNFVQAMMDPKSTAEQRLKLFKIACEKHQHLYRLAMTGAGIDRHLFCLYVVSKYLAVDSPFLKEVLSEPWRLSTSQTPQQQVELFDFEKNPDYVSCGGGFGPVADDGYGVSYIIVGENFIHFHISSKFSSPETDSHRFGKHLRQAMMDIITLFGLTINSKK

[3] = SUPPLEMENTARY: Lipophilicity (log D) Determination by high-throughput shake-flask; type: physicochemical; details: octanol/water
[4] = target: T2, Carnitine O-palmitoyltransferase 1, muscle isoform (Homo sapiens, UniProt Q92523); assay: SUPPLEMENTARY: Inhibition of Carnitine palmitoyltransferase 1, muscle isoform; parameters: species or system Muscle tissue
T2 sequence (Q92523 whole entry): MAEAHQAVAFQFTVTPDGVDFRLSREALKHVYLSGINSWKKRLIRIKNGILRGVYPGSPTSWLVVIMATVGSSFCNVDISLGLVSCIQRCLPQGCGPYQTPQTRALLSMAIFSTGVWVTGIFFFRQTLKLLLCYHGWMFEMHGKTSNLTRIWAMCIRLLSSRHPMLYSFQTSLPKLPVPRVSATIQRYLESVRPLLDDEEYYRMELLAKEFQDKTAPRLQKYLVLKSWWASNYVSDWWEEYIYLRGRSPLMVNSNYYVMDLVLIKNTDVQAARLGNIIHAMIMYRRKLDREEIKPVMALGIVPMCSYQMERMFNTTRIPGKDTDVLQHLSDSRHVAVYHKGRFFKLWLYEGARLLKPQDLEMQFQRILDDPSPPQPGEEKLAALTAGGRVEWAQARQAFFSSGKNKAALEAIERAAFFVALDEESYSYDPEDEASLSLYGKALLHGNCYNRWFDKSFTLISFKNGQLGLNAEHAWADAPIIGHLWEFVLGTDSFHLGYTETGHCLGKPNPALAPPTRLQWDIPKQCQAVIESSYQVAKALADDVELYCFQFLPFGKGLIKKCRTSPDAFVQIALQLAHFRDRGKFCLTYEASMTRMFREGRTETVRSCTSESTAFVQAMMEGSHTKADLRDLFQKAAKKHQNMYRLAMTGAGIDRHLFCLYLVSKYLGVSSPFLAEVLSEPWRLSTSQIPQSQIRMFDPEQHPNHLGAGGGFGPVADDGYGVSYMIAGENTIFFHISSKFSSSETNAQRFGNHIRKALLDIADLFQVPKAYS

[5] = target: T3, Carnitine O-palmitoyltransferase 2, mitochondrial (Rattus norvegicus, UniProt P18886); assay: (§2) SUPPLEMENTARY: Inhibition of Carnitine palmitoyltransferase 2
T3 sequence (P18886 whole entry): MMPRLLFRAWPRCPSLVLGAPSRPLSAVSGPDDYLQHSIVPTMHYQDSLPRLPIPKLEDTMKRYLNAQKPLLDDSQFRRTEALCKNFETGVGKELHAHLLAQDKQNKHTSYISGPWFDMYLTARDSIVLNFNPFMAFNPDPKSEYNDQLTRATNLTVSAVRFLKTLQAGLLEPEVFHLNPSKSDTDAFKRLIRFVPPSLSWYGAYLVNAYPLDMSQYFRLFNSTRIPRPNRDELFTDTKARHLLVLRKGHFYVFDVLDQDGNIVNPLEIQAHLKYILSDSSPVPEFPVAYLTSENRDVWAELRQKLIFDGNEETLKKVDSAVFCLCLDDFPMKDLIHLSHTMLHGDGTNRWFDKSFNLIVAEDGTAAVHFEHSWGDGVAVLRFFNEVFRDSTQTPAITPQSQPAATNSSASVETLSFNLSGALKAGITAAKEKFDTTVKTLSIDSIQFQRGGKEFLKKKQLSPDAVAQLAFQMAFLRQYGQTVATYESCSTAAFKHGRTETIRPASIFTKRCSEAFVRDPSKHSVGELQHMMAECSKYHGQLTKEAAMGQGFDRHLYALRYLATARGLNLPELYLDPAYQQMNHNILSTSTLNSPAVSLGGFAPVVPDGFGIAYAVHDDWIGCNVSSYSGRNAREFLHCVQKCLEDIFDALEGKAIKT

[6] = target: T4, Carnitine O-palmitoyltransferase 2, mitochondrial (Homo sapiens, UniProt P23786); assay: as §2
T4 sequence (P23786 whole entry): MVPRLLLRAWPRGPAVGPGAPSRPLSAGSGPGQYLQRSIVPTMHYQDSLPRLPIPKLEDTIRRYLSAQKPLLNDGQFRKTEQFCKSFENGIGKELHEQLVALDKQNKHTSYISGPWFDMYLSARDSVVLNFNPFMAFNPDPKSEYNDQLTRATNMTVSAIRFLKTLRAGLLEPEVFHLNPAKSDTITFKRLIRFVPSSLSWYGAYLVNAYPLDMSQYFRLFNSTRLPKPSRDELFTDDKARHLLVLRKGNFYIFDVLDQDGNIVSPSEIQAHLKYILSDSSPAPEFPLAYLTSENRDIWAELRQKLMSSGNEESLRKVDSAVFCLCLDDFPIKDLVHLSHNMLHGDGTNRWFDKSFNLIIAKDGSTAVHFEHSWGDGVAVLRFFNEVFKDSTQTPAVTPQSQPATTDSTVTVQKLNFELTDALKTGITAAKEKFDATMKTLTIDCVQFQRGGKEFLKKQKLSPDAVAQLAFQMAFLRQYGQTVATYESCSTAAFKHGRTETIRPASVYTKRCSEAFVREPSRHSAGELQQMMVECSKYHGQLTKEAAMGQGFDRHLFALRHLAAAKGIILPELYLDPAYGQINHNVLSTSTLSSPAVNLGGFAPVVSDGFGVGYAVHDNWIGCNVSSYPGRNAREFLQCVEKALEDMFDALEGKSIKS

[7] = target: T5, Carnitine O-palmitoyltransferase 1, liver isoform (Homo sapiens, UniProt P50416); assay: as §1
T5 sequence (P50416 whole entry): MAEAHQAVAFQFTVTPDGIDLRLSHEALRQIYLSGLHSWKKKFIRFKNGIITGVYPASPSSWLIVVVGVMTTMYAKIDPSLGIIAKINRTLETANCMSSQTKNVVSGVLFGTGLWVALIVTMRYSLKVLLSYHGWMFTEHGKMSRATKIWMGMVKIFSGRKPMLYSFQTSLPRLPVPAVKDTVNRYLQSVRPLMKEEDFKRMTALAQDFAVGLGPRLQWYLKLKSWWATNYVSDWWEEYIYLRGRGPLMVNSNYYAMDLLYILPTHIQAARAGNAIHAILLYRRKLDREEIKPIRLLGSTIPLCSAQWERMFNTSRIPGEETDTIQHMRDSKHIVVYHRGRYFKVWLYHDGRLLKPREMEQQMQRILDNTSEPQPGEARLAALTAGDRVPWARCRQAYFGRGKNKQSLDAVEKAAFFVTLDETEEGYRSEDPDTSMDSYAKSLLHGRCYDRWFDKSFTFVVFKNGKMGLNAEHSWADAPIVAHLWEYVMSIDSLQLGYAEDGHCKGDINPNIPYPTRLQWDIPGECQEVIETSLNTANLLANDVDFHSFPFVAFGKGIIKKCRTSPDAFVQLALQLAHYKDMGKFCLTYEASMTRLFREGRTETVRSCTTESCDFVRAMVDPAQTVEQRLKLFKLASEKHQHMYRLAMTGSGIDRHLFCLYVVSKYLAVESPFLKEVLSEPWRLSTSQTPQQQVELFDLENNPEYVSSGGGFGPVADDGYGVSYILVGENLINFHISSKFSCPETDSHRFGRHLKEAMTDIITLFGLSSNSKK

[8] = SUPPLEMENTARY: PAMPA permeability assay; type: physicochemical; details: read-out: Permeability

Row | Compound | solubility kinetic [1] [µg/mL] | IC50 [2] [nM] | logD [3] | IC50 [4] [nM] | IC50 [5] [nM] | IC50 [6] [nM] | IC50 [7] [nM] | Papp [8] [×10⁻⁶ cm/s]
1 | COc1ccc(Cl)cc1-c1csc([C@H]2CCCCN2C(=O)COc2ccccc2)n1 | < 1 | 761 | > 4 | > 100000 | > 100000 | > 100000 |  | 
2 | CCn1cc(S(=O)(=O)c2cc(Cl)ccc2OC)c2cc(C(=O)Nc3ccc(C(=O)O)cc3)ccc21 | 15 (≈ 29.2 µM) | 53.7 |  | 1960 | 1860 | 537 | 74.7 | 0.67
3 | COc1ccc(Cl)cc1S(=O)(=O)N1CCOc2ccc(C(=O)Nc3ccc(CCC(=O)O)cc3)cc21 | 4 (≈ 7.53 µM) | 106 |  | 932 | > 100000 | > 100000 | 175 | 3.3
4 | COc1ccc(Cl)cc1S(=O)(=O)N1CCCc2ccc(C(=O)Nc3ccc(C(=O)O)cc3)cc21 | 8 (≈ 16 µM) | 32.3 |  | 5930 | 2850 | 2130 | 26.7 | 3.2
5 | COc1ccc(Cl)cc1S(=O)(=O)N1CCOc2c(F)cc(C(=O)Nc3ccc(C(=O)O)cc3)cc21 | 5 (≈ 9.6 µM) | 45.2 |  | > 100000 | > 100000 | 11300 | 77.5 | 2.44
6 | COc1ccc(Cl)cc1S(=O)(=O)N1COc2c(F)cc(C(=O)Nc3ccc(C(=O)O)cc3)cc21 | 15 (≈ 29.6 µM) | 63.4 |  | 17600 | > 100000 | 15100 | 42.5 | 2.2
7 | O=C(NC1CC1)c1cncc(-c2noc([C@H]3CCCCN3C(=O)COc3ccccc3)n2)c1 | 138 (≈ 308 µM) | 1000 |  | > 100000 | > 100000 | > 100000 | 111 | 3.2
8 | COc1ccc(Cl)cc1S(=O)(=O)N1COc2c(F)cc(C(=O)Nc3ccc(CC(=O)O)cc3)cc21 | 38 (≈ 72.9 µM) | 132 |  | 614 | > 100000 | > 100000 | 155 | 2.84
9 | Cc1cc(C(=O)Nc2ccc(-c3nnn[nH]3)cc2)nn1Cc1ccc(OC(F)F)cc1 | 31 (≈ 72.9 µM) | 932 |  | 6170 | 81600 | 72600 | 192 | 1.23
10 | COc1ccc(Cl)cc1S(=O)(=O)N1COc2c(F)cc(C(=O)Nc3ccc(C(=O)O)c(Cl)c3)cc21 | 73 (≈ 135 µM) | 123 |  | 2730 | 9570 | 2780 | 130 | 1.79
11 | COc1ccc(Cl)cc1Sc1cn(C)c2ccc(C(=O)Nc3ccc(C(=O)O)cc3)cc12 | 2 (≈ 4.28 µM) | 74 |  | > 100000 | > 100000 | > 100000 | 61.9 | 0.53
12 | CCn1cc(Sc2cc(Cl)ccc2OC)c2cc(C(=O)Nc3ccc(C(=O)O)cc3)ccc21 | 4 (≈ 8.32 µM) | 473 |  | > 100000 | > 100000 | > 100000 | 169 | 0.71
13 | COc1ccc(Cl)cc1S(=O)(=O)N1CCOc2c1cc(C(=O)Nc1ccc(C(=O)O)cc1)cc2C(F)(F)F | 103 (≈ 180 µM) | 156 |  | > 100000 | 5230 | 2320 | 77.1 | 2.65
14 | COc1ccc(Cl)cc1S(=O)(=O)c1c[nH]c2ccc(C(=O)Nc3ccccc3)cc12 | 1 (≈ 2.27 µM) | 83.8 |  | > 100000 | > 100000 | > 100000 | 114 | 0.06
15 | COc1ccc(Cl)cc1S(=O)(=O)N1CCNc2ccc(C(=O)Nc3ccc(C(=O)O)cc3)cc21 | 1 (≈ 1.99 µM) | 189 |  | 11800 | > 100000 | > 100000 | 71.3 | 0.81
16 | COc1ccc(Cl)cc1S(=O)(=O)N1COc2c(Cl)cc(C(=O)Nc3ccc(C(=O)O)cc3)cc21 | 4 (≈ 7.64 µM) | 34.5 |  | > 100000 | 68200 | 33700 | 43.6 | 3.92
